This is an account of results in publication PMC5514901, “Synthesis and evaluation of anthranilamide-based derivatives as FXa inhibitors” (Oncotarget, 2017).

The target of one data set is T1, human FXa (Homo sapiens, UniProt P00742).
T1 construct: purchased Hyphen BioMed
Kind of data set: Inhibition activity measurement against FXa (chromogenic substrate CS-11(22)). Type of data set: biochemical. Particulars: human FXa; for IC50: chromogenic substrate, 37°C, read at 405 nm. Here is the method: The inhibition of FXa was measured using human FXa (Hyphen BioMed, city, Paris, FRA) and chromogenic substrate CS-11(22) (Hyphen BioMed, Paris, FRA) in 384-well microtiter plates at room temperature. […] 2 μL of FXa (56.8 nM), 16 μL of Tris buffer (adjust to pH 7.4 with HCl containing 0.3 M NaCl and 50 mM Tris) and 3 μL of test compound were added to the well, respectively. The negative control was composed of the same mixed solutions except replacing test compound with DMSO. […] After incubated at 37°C for 5 min, 8 μL of FXa substrate solution (3.5 mM) was added and then incubated at 37°C for 25 min. The FXa activity was measured at 405 nm using a SpectraMax M5 (Molecular Devices, Sunnyvale, CA, USA). The IC50 was calculated by the software named SPSS (IBM, North Castle, NY, USA) and the Probit function in it.

For another data set, the system named is human plasma. Description: Prothrombin time (PT) assay. The format is biochemical. Particulars: concentration doubling prothrombin time in human plasma. The procedure: A commercially available automatic coagulometer (Steellex Science Instrument Co., Ltd., Beijing, China) was employed to measure PT. The clotting times were also measured using the instrument itself, in accordance with the manufacturer's instructions. Increasing concentrations of inhibitor or solvent were added to human plasma and incubated for 3 min at 37°C. Prothrombin time (PT) was determined by automatic coagulometer.

The test system of the next data set is human FIIa (thrombin). Further details: method as in PMID 16305517. The note with it: read-out: IC50 against thrombin; cited from earlier work.

Bounds are passed on as bounds.

T1 sequence (P00742 235-488 limits assumed): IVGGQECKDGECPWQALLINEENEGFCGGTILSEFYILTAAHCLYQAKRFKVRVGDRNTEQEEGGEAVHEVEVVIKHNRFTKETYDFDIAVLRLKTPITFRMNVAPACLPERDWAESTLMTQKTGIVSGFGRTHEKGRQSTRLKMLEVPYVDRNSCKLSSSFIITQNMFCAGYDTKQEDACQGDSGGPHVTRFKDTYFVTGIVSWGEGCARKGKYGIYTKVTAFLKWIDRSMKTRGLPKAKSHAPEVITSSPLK
T1 sequence (P00742 41-179 partner limits assumed): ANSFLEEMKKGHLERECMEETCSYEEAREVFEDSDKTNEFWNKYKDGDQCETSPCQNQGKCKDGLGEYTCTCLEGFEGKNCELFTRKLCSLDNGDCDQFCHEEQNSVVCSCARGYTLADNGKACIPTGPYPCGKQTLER

In turn, `O=C(Nc1ccccc1C(=O)Nc1ccc(-n2ccccc2=O)cc1)c1ccc(Br)s1` [6a, 5-bromo-N-(2-((4-(2-oxopyridin-1(2H)-yl)phenyl)carb-amoyl)phenyl)thiophene-2-carboxamide] yielded a melting point of more than 250 °C. On human FXa, this compound yielded a Ki of 20.5 nM and an IC50 of 28.7 nM. Moreover, the “2 × PT (Human)” value with human plasma worked out at 8.4 µM.
`Cc1ccc(NC(=O)c2ccc(Cl)cc2Cl)c(C(=O)Nc2ccc(-n3ccccc3=O)cc2)c1` [6k-b, 2,4-dichloro-N-(4-methyl-2-((4-(2-oxopyridin-1(2H)-yl)phenyl)carbamoyl)phenyl)benzamide] showed a melting point of more than 250 °C. Moreover, at human FXa, the Ki worked out at 25.4 nM and the IC50 was 35.5 nM. Further, in the data set with human plasma, the “2 × PT (Human)” value stood at 11.3 µM.
Consider `O=C(Nc1ccc(Cl)cc1C(=O)Nc1ccc(N2CCOCC2=O)cc1)c1ccc(Br)s1` [6a-e, 5-bromo-N-(4-chloro-2-((4-(3-oxomorpholino)phenyl)carbamoyl)phenyl)thiophene-2-carboxamide], for which the melting point was more than 250 °C. Besides, the IC50 against human FXa was found to be 125 nM. For the same compound, the “2 × PT (Human)” value with human plasma worked out at 3.8 µM.
Take `O=C(Nc1ccccc1C(=O)Nc1ccc(-n2ccccc2=O)cc1)c1ccc(Cl)cc1Cl` [6k, 2,4-dichloro-N-(2-((4-(2-oxopyridin-1(2H)-yl)phenyl)arbamoyl)phenyl)benzamide]: the melting point was more than 250 °C. On human FXa, this compound displayed a Ki of 17 nM and an IC50 of 23.8 nM. Also, the “2 × PT (Human)” value in the data set on human plasma was 16.4 µM.
`O=C(Nc1ccc(Cl)cc1C(=O)Nc1ccc(-n2ccccc2=O)cc1)c1ccc(Cl)cc1Cl` [6k-a, 2,4-dichloro-N-(4-chloro-2-((4-(2-oxopyridin-1(2H)-yl)phenyl)carbamoyl)phenyl)benzamide] gave a melting point of more than 250 °C. At human FXa, this compound had a Ki of 58.6 nM and a concentration for half-maximal inhibition (IC50) of 82 nM. Also, the “2 × PT (Human)” value in the data set on human plasma stood at 16.9 µM.
Consider `Cc1ccc(NC(=O)c2ccc(Br)s2)c(C(=O)Nc2ccc(-n3ccccc3=O)cc2)c1` [6a-b, 5-bromo-N-(4-methyl-2-((4-(2-oxopyridin-1(2H)-yl)ph-enyl)carbamoyl)phenyl)thiophene-2-carboxamide], for which the melting point is more than 250 °C. On human FXa, the Ki worked out at 13.4 nM and the midpoint of inhibition, the IC50, lay at 18.8 nM. For the same compound, the “2 × PT (Human)” value with human plasma is 4.2 µM.
Consider `O=C(NC[C@H]1CN(c2ccc(N3CCOCC3=O)cc2)C(=O)O1)c1ccc(Cl)s1` [rivaroxaban, reference compound], for which the “2 × PT (Human)” value with human plasma came to 0.2 µM. The IC50 with human FIIa (thrombin) is 6900 nM.
`O=C(Nc1ccc(Cl)cc1C(=O)Nc1ccc(-n2ccccc2=O)cc1)c1ccc(Cl)nc1` [6h-a, 6-chloro-N-(4-chloro-2-((4-(2-oxopyridin-1(2H)-yl)ph-enyl)carbamoyl)phenyl)nicotinamide]: the melting point was more than 250 °C. On human FXa, this compound showed an IC50 of 427 nM.
The like results for `Cc1cccc(C(=O)Nc2ccc(N3CCOCC3=O)cc2)c1NC(=O)c1ccc(Cl)nc1` [6h-g, 6-chloro-N-(2-methyl-6-((4-(3-oxomorpholino)phenyl)carbamoyl)phenyl)nicotinamide] were, in that order, more than 250 °C and more than 1000 nM.
The like results for `COc1ccc(C(=O)Nc2ccc(C)cc2C(=O)Nc2ccc(N3CCOCC3=O)cc2)cc1` [6l-f, 2-(4-methoxybenzamido)-5-methyl-N-(4-(3-oxomorph-olino)phenyl)benzamide] were, in that order, more than 250 °C and 433 nM.
Consider `Cc1ccc(C(=O)Nc2ccccc2C(=O)Nc2ccc(-n3ccccc3=O)cc2)s1` [6b, 5-methyl-N-(2-((4-(2-oxopyridin-1(2H)-yl)phenyl)carb-amoyl)phenyl)thiophene-2-carboxamide], for which the melting point was more than 250 °C. In addition, the IC50 on human FXa is more than 1000 nM.
The compound `COc1ccc(C(=O)Nc2ccc(C)cc2C(=O)Nc2ccc(-n3ccccc3=O)cc2)cc1` [6l-b, 2-(4-methoxybenzamido)-5-methyl-N-(4-(2-oxopyrid-in-1(2H)-yl)phenyl)benzamide] registered a melting point of more than 250 °C. Besides, the IC50 at human FXa stood at 452 nM.
The matching figures for `COc1ccc(C(=O)Nc2ccc(Cl)cc2C(=O)Nc2ccc(-n3ccccc3=O)cc2)cc1` [6l-a, 5-chloro-2-(4-methoxybenzamido)-N-(4-(2-oxopyridin-1(2H)-yl)phenyl)benzamide]: more than 250 °C and more than 1000 nM.
`O=C(Nc1ccccc1C(=O)Nc1ccc(-n2ccccc2=O)cc1)c1ccc(F)c(F)c1` [6i, 3,4-difluoro-N-(2-((4-(2-oxopyridin-1(2H)-yl)phenyl)carbamoyl)phenyl)benzamide] registered a melting point of more than 250 °C. Besides, at human FXa, the IC50 is more than 1000 nM.

For orientation: Ki means a dissociation constant, usually derived from enzyme kinetics or from competition with a known ligand. A high value points to lower affinity. One may read the IC50 as the midpoint of a concentration-inhibition curve. The melting point is the temperature, or range, at which the solid turns liquid.
